Patent US7989587B2, “SSX-2 peptides presented by HLA class II molecules” (Ludwig Institute for Cancer Research Ltd., priority 1999, dated 2011)

Key:
HLA-DR = experiment: Binding of SSX-2 peptides to HLA-DR subtypes (Example 7); design: species or system human
Excerpt: The methods described above were used to test the binding of SSX-2 peptides p98-112 and p101-115 (SEQ ID NO:40 and SEQ ID NO:43, respectively).

[1] = test system: SSX-2 specific DR3 restricted CD4+ T cells; experiment: Peptide titration assay, IFN-γ secretion by ELISA; type: cell-based, human; settings: FIG. 10B
Method: (§1) For intracellular cytokine secretion detection, T cells were stimulated in the absence or in the presence of peptides at the indicated dose during 4 h as described previously (Ayyoub M, et al., J Clin Invest., 2004; 113 (8): 1225-33, see examples above). One hour after the beginning of the incubation, Brefeldin A ([…], Sigma) was added to inhibit cytokine secretion. After incubation, cells were stained with anti-CD4 mAb (BD Biosciences, San Diego, Calif.) for 20 min at 4° C. and fixed using formaldehyde, permeabilized with saponine (Sigma, 0.1% in PBS 5% FCS), stained with anti IFN-γ mAb (BD Biosciences) and analyzed by flow cytometry. Data analysis was performed using Cell Quest software. IFN-γ secretion was assessed as described (Ayyoub M, et al., J Clin Invest., 2004; 113 (8): 1225-33). T cells (10,000/well) and EBV transformed B cells (EBV) used as antigen-presenting cells (APC, 10,000/well) were incubated in the absence or in the presence of peptides at the indicated dose in 96-well round-bottom plates in […]/well of medium. […] After 24 h incubation at 37° C., culture supernants were collected and the content of IFN-g determined by ELISA (BioSource International, Camarillo, Calif., USA).
Mapping of the actual epitope recognized by SSX-2 specific DR3 restricted CD4+ T cells was then assessed experimentally by analyzing the capacity of SSX-2 37-58 relative to that of truncated peptide variants to stimulate IFN-g secretion by specific T cells, in a peptide titration assay (FIG. 8B). […]
As a high degree of homology exists between SSX-2 and other SSX family members, it was interesting to assess the ability of SSX-2 specific DR3 restricted CD4+ T cells to recognize homologous peptides in the sequence of other SSX proteins. […] This was the result of the large conservation of the amino acid positions representing anchor residues for binding to DRB1*0301 with only one of these residues (position 6) being polymorphic in the analyzed sequences, but in all cases occupied by an amino acid known, at this position, to favorably impact on binding to DRB1*0301. […]

T cells = experiment: BrdU proliferation assay of T cells with peptide or protein loaded autologous dendritic cells; type: cell-based, human
Method: The peptides were then combined with autologous dendritic cells. These were obtained by isolating peripheral blood mononuclear cells (“PBMCs”), from HLA-DR+donors, using Ficoll-Hypaque methods. These PBMCs were then incubated for 1-2 hours at 37° C., on plastic surfaces. Adherent monocytes were then cultured for 5 days in medium that had been supplemented with interleukin-4 (IL-4) and GM-CSF. To elaborate, AIMV medium supplemented with 1000 U/ml of IL-4, and 1000 U/ml of GM-CSF was used. This incubation stimulates differentiation into dendritic cells.
Samples of dendritic cells (8×10^5) were then loaded with 50 μg/ml of […] added peptide. The loading proceeded for 2 hours, at 37° C., in medium supplemented with 1000 U/ml of TNF-α and 10,000 U/ml of IL-1β. Peptide pulsed dendritic cells were then washed twice, in excess peptide free medium. Then, autologous peripheral blood lymphocytes (4×10^7) were combined with 8×10^5 peptide loaded dendritic cells (ratio of 50:1), in medium which contained 5 ng/ml of IL-7 and 20 U/ml of IL-2. Incubation was carried out at 37° C.
Cultures were restimulated weekly with peptide loaded, irradiated PBMCs.
The ability of the peptides to form complexes with HLA-DR molecules and to stimulate CD4^+ cell proliferation was determined by measuring BrdU uptake.
The specificity of the resulting CD4^+ cells was then tested by combing them with autologous dendritic cells that had been loaded with peptide, admixed with full length recombinant SSX-2 protein, or with an unrelated protein.
The results presented in Example 4 led to additional experiments using T cells that had been isolated from two donors using standard protocols. In these experiments, autologous dendritic cells were prepared, as described, and combined with T cells whose proliferation was determined in a BrdU assay. […] The SSX-2 full length molecule provoked just slightly less than 60% proliferation, while the peptide mixture provoked about 85% proliferation.

CD4^+ T-cells = experiment: IFN-γ ELISPOT assay of peptide-primed CD4+ T-cells; type: cell-based, human; settings: T-cells prestimulated with p45-59; autologous and allogeneic DC
Method: PBMC from patients were isolated by Ficoll-Paque™ PLUS separation (Amersham Pharmacia Biotech AB, Uppsala, Sweden). For in-vitro priming, 1×10^7 and 2×10^6 unseparated PBMC, respectively, were suspended in 500 μl serum-free medium (X-Vivo 15 (Biowhittaker Europe s.p.r.l., Verviers, Belgium) supplemented with 2 mM L-glutamine (Gibco) and 1% penicillin/streptomycin (Gibco). For pulsing, the pool of the 3 SSX2-derived peptides (each at a concentration of 2 μg/ml) was added to the suspension of 1×10^7 cells, while the suspension of 2×10^6 PBMC was pulsed with the mix of 7 peptides (each at 2 μg/ml) derived from the pp65 antigen of the human CMV. Pulsing was performed for 90-120 minutes at 37° C. Thereafter the pulsed cells were washed once with serum-free medium and suspended for cultivation in X-Vivo 15 T-cell medium (Biowhittaker) supplemented with 10% human AB serum (Biowhittaker) and 6.7 ng/ml IL-7 (R&D systems). The 1×10^7 SSX2-pulsed PBMC were suspended in 3.75 ml T-cell medium and plated into 5 wells (0.75 ml/well) of a 48-well Nuncclone™ plate (Nunc GmbH & Co KG.). The 2×10^6 pp65-pulsed PBMC were plated into 1 well (0.75 ml). The remaining PBMC from the patients or donors, respectively, were divided into at least 3 aliquots of 1×10^7 PBMC and frozen until used for restimulation and in the T-cell assays. The peptide-pulsed PBMC which served both as APC and as a source for the T-cells to be used in the ELISPOT assay, were cultured at 37° C. One day after the stimulation was started, each well was supplemented with 250 μl X-Vivo 15 medium supplemented with 80 U/ml IL-2 (R&D Systems) resulting in a final concentration of 20 U/ml IL-2. The cells were incubated for 6 days under occasional microscopic control. On day 7 and before each ELISPOT assay, respectively, the percentage of CD4^+ T-cells in the culture well was determined. On day 7, cells were restimulated with autologous PBMC that had been pulsed with the appropriate peptides under the same conditions as described for day 0/1 at a CD4^+/APC ratio of 1:1. On day 14, the first ELISPOT assay was performed. To this end, the cultured cells were harvested from the respective wells and the primed CD4^+ cells were used as effectors in the ELISPOT assay. The remaining cells were restimulated once more using conditions as described before. […] no specific reactivity was shown by day 21, the stimulation was repeated weekly until all CD4^+ cells were consumed.
At least three IFN-γ ELISPOT assays were performed on days 14, 21 and 28, respectively. All tests were run in triplicates in order to determine mean values and standard deviations. Assays were performed in nitrocellulose-lined 96-well plates (MAHA S45 by Millipore, Bedford Mass., USA). The wells were pre-coated overnight with PBS (50 μl/well) containing an anti-IFN-γ capture antibody at the dilution recommended in the supplier's instructions (Mabtech AB, Nacka, Sweden). To block unspecific binding, the wells were then incubated with 10% human AB^+ serum for 1 h at 37° C. For the priming of effector cells, 2.5×10^4 CD4^+ T-cell were harvested, washed once to remove the cytokines, and were tested for specific recognition of the corresponding antigen. To this end, peptide-primed CD4^+ cells were harvested, washed once to remove cytokines, resuspended, and 50 μl of the cell suspension in X-Vivo 15 medium were added to each well. […]

[2] = test system: SSX-2 37-51 specific DR3 restricted CD4+ T cells; experiment: Recognition of recombinant protein loaded EBV cells, IFN-γ ELISA; type: cell-based, human; settings: FIG. 9C, FIG. 10C
Method: as §1, with “medium. In some experiments tumor cells were used as APC.” for “medium.”, “USA). […]” for “USA).”

FGRLQGISPKIMPKK (SSX-2 peptide) [p101-115]
HLA-DR subtypes to which binding was demonstrated (HLA-DR): DRB1*0701, DRB1*0301 and/or DRB3*0202

WEKMKSSEKIYYVYM (WEKMKSSEKIVYVYM; SSX-4 peptide (37-51)) [SSX-4 37-51]
recognition, fold less efficiently as compared to the SSX-2 37-51 peptide [1]: about 10 fold

WKKMKYSEKISYVYM (SSX-1 peptide (37-51)) [SSX-1 37-51]
cross-recognition of 37-51 homologous peptides [1]: No cross-recognition was detected

WEKMKVSEKIVYVYM (SSX-3 peptide (37-51)) [SSX-3 37-51]
cross-recognition of 37-51 homologous peptides [1]: No cross-recognition was detected

QMTFGRLQGISPKIM (SSX-2 peptide) [p98-112]
HLA-DR subtypes to which binding was demonstrated (HLA-DR): DRB1*0101, DRB1*1101, DRB1*1501, DRB3*0202 and/or DRB5*0101

B1: SSX-2 full length molecule: full length recombinant SSX-2 protein (protein, UniProt Q16385 1-188, looked up)
chain: MNGDDAFARRPTVGAQIPEKIQKAFDDIAKYFSKEEWEKMKASEKIFYVYMKRKYEAMTKLGFKATLPPFMCNKRAEDFQGNDLDNDPNRGNQVERPQMTFGRLQGISPKIMPKKPAEEGNDSEEVPEASGPQNDGKELCPPGKPTTSEKIHERSGPKRGEHAWTHRLRERKQLVIYEEISDPEEDDE
modifications: full-length
notes: full length recombinant SSX-2 protein
proliferation (T cells; first set of experiments, mixture of the 5 peptides of Example 4 compared to equal amount of protein): less than 60%
T cell proliferation induced by pulsed dendritic cells (T cells; six individual experiments, versus other peptides or TALL): greater T cell proliferation
T-cell response to dendritic cells pulsed with whole protein (CD4^+ T-cells): induced a significant T-cell response
processing and presentation of recombinant protein by DR3+ EBV cells, recognition by specific CD4+ T cells [2]: efficiently process

B2: SSX-4 protein: SSX-4 recombinant protein (protein, UniProt O60224 1-188, looked up)
Protein SSX4: MNGDDAFARRPRDDAQISEKLRKAFDDIAKYFSKKEWEKMKSSEKIVYVYMKLNYEVMTKLGFKVTLPPFMRSKRAADFHGNDFGNDRNHRNQVERPQMTFGSLQRIFPKIMPKKPAEEENGLKEVPEASGPQNDGKQLCPPGNPSTLEKINKTSGPKRGKHAWTHRLRERKQLVVYEEISDPEEDDE
processing and presentation of recombinant protein by DR3+ EBV cells, recognition by specific CD4+ T cells [2]: barely detectable
